From PMC3403540, “Active Hydrophilic Components of the Medicinal Herb Salvia miltiorrhiza (Danshen) Potently Inhibit Organic Anion Transporters 1 (Slc22a6) and 3 (Slc22a8)” (Evidence-based Complementary and Alternative Medicine : eCAM, 2012)

Legend:
mOat1 = molecular target: T1, mOat1 (Mus musculus, UniProt Q8VC69); assay: Inhibition of mOat1-mediated [3H]PAH uptake in CHO-mOat1 cells (cell accumulation assay); format: cell-based, murine; conditions: for Estimated α value from mixed inhibition model analysis, mOat1: 5 μM PAH for 2 min, mean, α > 1 indicates competitive inhibition; for Ki / inhibition at 1000 µM: 5 μM [3H]PAH; for Ki: 2 min, CHO-mOat1, mean ± S.E.M. (n = 3), from IC50 via Cheng-Prusoff, read-out: Estimated K i for mOat1-mediated transport; for inhibition at 1000 µM: 1 mM (1000 μM) inhibitor, 10 min, CHO-mOat1 cells, read-out: inhibition of mOat1-mediated PAH uptake; for mode of inhibition of mOat1-mediated transport: mixed inhibition model, PAH substrate; for K i ratio (mOat1/mOat3): ratio of Ki on mOat1 to Ki on mOat3
T1 construct: expressed in transfected cells; host or cells: CHO (Chinese hamster ovary), stably transfected (CHO-mOat1)
T1 sequence (Q8VC69 1-545): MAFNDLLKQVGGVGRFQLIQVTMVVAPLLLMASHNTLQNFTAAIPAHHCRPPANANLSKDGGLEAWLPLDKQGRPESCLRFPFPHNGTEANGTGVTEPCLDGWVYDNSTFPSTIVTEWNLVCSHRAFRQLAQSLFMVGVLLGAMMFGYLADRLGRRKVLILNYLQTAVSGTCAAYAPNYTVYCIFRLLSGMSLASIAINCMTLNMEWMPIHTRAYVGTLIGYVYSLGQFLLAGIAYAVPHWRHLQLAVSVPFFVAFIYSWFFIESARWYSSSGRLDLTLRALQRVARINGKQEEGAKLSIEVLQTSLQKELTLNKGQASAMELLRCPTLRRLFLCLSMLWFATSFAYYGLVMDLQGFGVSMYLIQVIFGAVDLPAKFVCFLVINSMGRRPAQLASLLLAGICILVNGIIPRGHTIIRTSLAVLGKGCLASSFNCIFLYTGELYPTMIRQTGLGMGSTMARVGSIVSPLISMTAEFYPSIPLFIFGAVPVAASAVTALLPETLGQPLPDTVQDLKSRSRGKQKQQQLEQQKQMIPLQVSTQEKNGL
Protocol: Derivation of the stably transfected Chinese hamster ovary (CHO) cell lines expressing mOat1 (CHO-mOat1), mOat3 (CHO-mOat3), and the empty vector (FRT) transfected control cell line (CHO-FRT) was described previously.
Cell transport assay procedures were adapted from those previously published. In brief, 2 × 10^5 cells/well were seeded in 24-well tissue culture plates and grown in the absence of antibiotics for 48 hr. On the day of the experiment, cells were equilibrated with transport buffer for 10 min (500 μL of Hanks' balanced salt solution containing 10 mM HEPES, pH 7.4). […] After incubation, cells were immediately rinsed three times with ice-cold transport buffer, lysed, and analyzed via liquid scintillation counting. Uptake values were normalized to corresponding total protein content in cell lysates as determined by the Bradford method. Substrate accumulation is reported as picomoles of substrate per milligram protein. […] Kinetic calculations were performed using GraphPad Prism Software version 5.0 (GraphPad Software Inc., San Diego, CA, USA). Michaelis constant (K m) values were calculated by nonlinear regression using the Michaelis-Menten model. […] In this study, three curves were constructed (no inhibitor, plus two selected inhibitor concentrations) with uptake of substrate plotted as a function of its concentration for each condition. […] The parameter, α, can then be used to determine the mode of inhibition. When α is very large (α > 1), it indicates competitive inhibition. […] Results were confirmed by repeating all experiments at least three times with triplicate wells for each data point in every experiment.
Figure 3 Michaelis-Menten kinetics of PAH transport in CHO-mOat1 cells. In order to calculate K i values for mOat1, the K m value for PAH needed to be determined in the CHO-mOat1 cell system. […] The corrected curve (closed circles) was obtained by subtracting the nonspecific background uptake as measured in the CHO-FRT cells from CHO-mOat1 accumulation to allow analysis of mOat1-mediated activity. Experiments were repeated three times in triplicate, and Michaelis constant (K m) values were calculated by nonlinear regression using the Michaelis-Menten model. […] Graph shown is from a representative experiment with values plotted as mean ± S.D. (n = 3).
Figure 2 Inhibition profile of mOat1 and mOat3. […] (b) Inhibition of mOat3-mediated uptake of [^3H]ES (1 μM) by LSA, PCA, RMA, SAA, SAB, TSL, and probenecid (1000 μM) was measured in the CHO-mOat3 cells (10 min). […] Values are mean ± S.D. of triplicate values. ***denotes P < 0.001 as determined by one-way ANOVA followed by Dunnett's t-test.
Figure 4 K i determination for LSA, RMA, and SAA in the CHO-mOat1 cell line. […] (5 μM) in CHO-mOat1 cells was measured in the presence of increasing concentrations (10^−7 to 5 × 10^−4 M) of LSA, RMA, and SAA. Data were corrected for nonspecific background measured in the CHO-FRT cells prior to kinetic analysis. K i values were determined with non-linear regression and the “one-site competition” model using GraphPad Prism software. Graphs shown are from representative experiments with values plotted as mean ± S.D. (n = 3).

[1] = parameters: method as in PMID 15866491; conditions: healthy humans, i.v. dosing of a Danshen product; cited from earlier work
[2] = rats, cited from earlier work
[3] = rat plasma; cited from earlier work

Row | Compound | Estimated α value from mixed inhibition model analysis, mOat1 (mOat1) | Ki (mOat1) | inhibition at 1000 µM (mOat1) | mode of inhibition of mOat1-mediated transport (mOat1) | K i ratio (mOat1/mOat3) (mOat1) | Cmax [1] | increase of AUC on spiking additional SAA into Danshen preparations [2] | reduction of clearance on spiking additional SAA into Danshen preparations [2] | unbound renal clearance relative to glomerular filtration rate ([2]; fold greater than the glomerular filtration rate) | plasma protein binding [3]
1 | O=C(/C=C/c1ccc(O)c2c1[C@H](C(=O)O)[C@@H](c1ccc(O)c(O)c1)O2)O[C@H](Cc1ccc(O)c(O)c1)C(=O)O [LSA, lithospermic acid] | 6.7 × 10^11 | 14.9 ± 4.9 µM | 70 to 85% | competitive | 0.48 | 2.1 µM | – | – | – | –
2 | O=C(/C=C/c1ccc(O)c(O)c1)O[C@H](Cc1ccc(O)c(O)c1)C(=O)O [RMA, rosmarinic acid] | 1.3 × 10^12 | 5.5 ± 2.2 µM | > 95% | competitive | 1.29 | 6.7 µM | – | – | – | –
3 | O=C(/C=C/c1ccc(O)c(O)c1/C=C/c1ccc(O)c(O)c1)O[C@H](Cc1ccc(O)c(O)c1)C(=O)O [SAA, salvianolic acid A] | 2.6 × 10^14 | 4.9 ± 2.2 µM | > 95% | competitive | 0.23 | – | – | – | – | –
4 | O=C(O)C(O)Cc1ccc(O)c(O)c1 (stereo not shown) [TSL, tanshinol] | – | – | 70 to 85% | – | – | – | 26.7% | 32.9% | ~ 5 X | 25%
